For one molecule, pest or weed control and mortality results are on record in US12384769B2, “Heteroaryl-substituted aminoalkyl azole compounds as pesticides” (Elanco Animal Health GmbH, priority 2019, dated 2025).

Molecules are shown by their SMILES.

Common to all, as to assay type: in vivo
One test relates to Rhipicephalus sanguineus. As to the kind of experiment: Rhipicephalus sanguineus in-vitro contact test, adult brown dog ticks (RHIPSA Contact). The conditions noted are these: 5 μg/cm^2 (=500 g/ha), after 48 hours, read-out: activity (efficacy, ticks dead or moribund). Put shortly:
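Acetone solution coated onto glass tube walls; 900 ppm gives 5 μg/cm^2. After drying, 5-10 adult ticks per tube kept at room temperature for 48 h, then placed on a 45-50° C heating plate up to 5 min; ticks unable to climb away counted dead or moribund, efficacy as % affected.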

In a further test the test system is Spodoptera frugiperda. As to the kind of experiment: Spodoptera frugiperda spray test. The settings on record: in Zea mays, 168 h, read-out: activity (mortality). Put shortly:
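Larvae of fall armyworm placed on dried maize leaf sections previously sprayed with emulsified compound (acetone/DMF solvent, water with 1000 ppm emulsifier). Percent of caterpillars killed recorded on day 7, 0–100% scale.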

The test system of test [1] is Culex quinquefasciatus strain P00. As to the kind of experiment: Culex quinquefasciatus test (CULXFA surface treatment & contact assay). The settings on record: 30 minutes exposure, 24 hours after contact, read-out: efficacy (mortality). The procedure: Culex quinquefasciatus Test (CULXFA Surface Treatment & Contact Assay)
Solvent: Aceton+2000 ppm rapeseed oil methyl ester (RME)
In order to produce a sufficient, active ingredient containing solution it is necessary to solve the test compound in the solvent-mix (acetone at 2 mg/mL/RME 2 000 ppm). This solution is pipetted onto a glazed tile and after evaporation of the acetone, adult mosquitoes of the species Culex quinquefasciatus strain P00 are placed onto the dried surface. The exposure time is 30 minutes.
Mortality in percent (%) is determined 24 hours after contact of the insects to the treated surface. 100% mortality means that all tested insects are dead, whereas 0% means that no insect died.

As for `C[C@H](Nc1nc2cc(C(F)(F)F)c(Cl)cc2o1)c1ncnn1-c1ncccn1` [Example I-001, 6-chloro-N-{(1S)-1-[1-(pyrimidin-2-yl)-1H-1,2,4-triazol-5-yl]ethyl}-5-(trifluoromethyl)-1,3-benzoxazol-2-amine], the pest or weed control at 5 µg/cm2, 5 µg/cm2 in the test with Rhipicephalus sanguineus is 100%. For the same molecule, in the test with Spodoptera frugiperda, the mortality (commonly the share of the test organisms that died) at 100 g/ha was 100% and the mortality at 500 g/ha turned out to be 100%. Further, in test [1] (surface concentration 4 mg/m^2, glazed tile), the mortality at 4 mg/m2 was 90 to 100%. Besides, in test [1] (surface concentration 20 mg/m^2, glazed tile), the mortality at 20 mg/m2 lay in the range of 90 to 100%.
